Test results: ChEMBL document CHEMBL3217441, “Aromatic chloride to nitrile transformation: medicinal and synthetic chemistry” (Medchemcomm, 2010)

Experiments:
[1] = Inhibition of HIV-1 RDDP after 30 mins by scintillation counting analysis in presence of [3H]-TTP; design: species or system Human immunodeficiency virus 1
[2] = Half life in human liver microsomes; format: ADME
[3] = Lipophilicity, log D of the compound at pH 7.4; format: physicochemical; conditions: buffer

SMILES	IC50 [1]	half-life [2]	logD [3]
CCc1nc(C)n(CC)c1Oc1cc(Cl)cc(C#N)c1	18 nM	16 min	3.2
CCc1nc(C)n(CC)c1Oc1cc(C#N)cc(C#N)c1	131 nM	101 min	1.9
